Source: patent publication US4960900A, “Oxyimino derivatives of thiazole, method of preparation and use in therapy” (priority 1987, dated 1990)
Where two headings read alike, the source gives them in different places.

Key:
[1] = system: convulsions induced by pentetrazole (PTZ); test: Anticonvulsant properties: convulsions induced by pentetrazole (PTZ), oral, mice; format: in vivo; settings: per os, male mice, 30 min after administration, pentetrazole 125 mg/kg i.p.; for ED50: Mus musculus, po, 0.5 h, read-out: ED50 in respect of convulsions induced by PTZ
male mice [2] = test: in vivo; settings: for LD50: male mice
Protocol: (§1) The toxicity of the products to be studied was investigated by the oral administration, using an esophageal tube, of each of the said products to male mice with a body weight of 18 to 22 g, divided into groups each containing 10 to 20 animals. The mortality was recorded over a 14-day period.
(§2) The results obtained, which are expressed in the form of LD50 in mg/kg, are collated in Table II below.

[3] = system: convulsions induced by supramaximal electroshock (MCE); test: Anticonvulsant properties: convulsions induced by supramaximal electroshock (MCE), oral, mice; format: in vivo; settings: per os, male mice, 30 min after administration; for ED50: Mus musculus, po, 0.5 h, read-out: ED50 in respect of convulsions induced by MCE
Excerpt: MCE: supramaximal electroshock;
*: ED50 in mg/kg, determined per os on groups each containing ten

in vivo [4] = settings: mouse, in vivo, po; for LD50 at 336 h: male mice; for selectivity ratio: LD50 per os/ED50 per os
Protocol: as §1, §2

in vivo [5] = format: in vivo; settings: mouse, in vivo, po
Protocol: (§3) The neurotoxic properties were assessed on male mice by the so-called "Rota-rod" test carried out thirty minutes after the oral administration of the substances to be studied. The animals (divided into groups each containing ten male mice per dose and per product) are installed on the rod and their fall is observed over the next two minutes.
(§4) The results obtained are expressed in the form of the 50% neurotoxic dose (TD50) per os, which is the dose causing 50% of the animals to fall.
(§5) Protection index: TD50 per os/ED50 per os
(§6) *dose determined per os on groups each containing ten male mice.

convulsive seizures = test: Anticonvulsant properties in mice, overall statement (PTZ and MCE); format: in vivo, male mice
Protocol: The anticonvulsant properties were investigated on male mice, thirty minutes after the oral administration of the substances to be studied, by the induction of convulsive seizures.
These seizures are caused either by the intraperitoneal injection of pentetrazole (125 mg/kg) or by electrical stimulation of the cornea (supra-maximal electroshock, abbreviated to MCE).
The results, expressed in the form of the 50% effective dose (ED50) per os (dose protecting 50% of the animals), are collated in Table III below.

male mice [6] = test: in vivo; format: in vivo; settings: mouse, in vivo
Protocol: as §3, §4, §5, §6

[7] = TD50 per os/ED50 per os, MCE, read-out: Protection index MCE
[8] = TD50 per os/ED50 per os, PTZ, read-out: Protection index PTZ

## CC(=NO)c1scnc1C [Ex. 29]
[1]; 30 min
  ED50 in respect of convulsions induced by PTZ: 200 mg/kg
Male mice [2]; Table II, oral, 14 days
  LD50: 1000 mg/kg
[3]
  ED50 in respect of convulsions induced by MCE: > 200 mg/kg

## CC(=NO)c1sc(Br)nc1C [Ex. 23]
[1]
  ED50: > 200 mg/kg
In vivo [4]; LD50, Table II, 14 days
  LD50 at 336 h: > 1000 mg/kg
[3]
  ED50: > 200 mg/kg

## COC(=O)CON=C(C)c1scnc1C [Ex. 18]
[1]
  ED50: > 200 mg/kg
In vivo [4]; LD50, Table II, 14 days
  LD50 at 336 h: > 1000 mg/kg
[3]
  ED50: > 200 mg/kg

## CON=C(C)c1sc(C)nc1C [Ex. 27]
[1]
  ED50 in respect of convulsions induced by PTZ: > 200 mg/kg
Male mice [2]; Table II, oral, 14 days, 20160 min
  LD50: 1000 mg/kg
[3]
  ED50 in respect of convulsions induced by MCE: > 200 mg/kg

## CC(=NOC(C)C)c1scnc1C [Ex. 6]
[1]
  ED50: 112 mg/kg
In vivo [4]; LD50, Table II, 14 days
  LD50 at 336 h: > 1000 mg/kg
[3]
  ED50: > 200 mg/kg

## CC(=NOCCN(C)C)c1scnc1C [Ex. 20]
[1]
  ED50: > 200 mg/kg
In vivo [4]; LD50, Table II, 14 days
  LD50 at 336 h: > 1000 mg/kg
[3]
  ED50: > 200 mg/kg

## CCCC(CCC)C(=O)O [VALP, sodium valproate, reference compound]
In vivo [5]; [7]
  selectivity ratio: 2.8
In vivo [5]; [8]
  selectivity ratio: 2.7
In vivo [4]; Therapeutic index MCE, MCE
  selectivity ratio: 4
In vivo [4]; Therapeutic index PTZ, PTZ
  selectivity ratio: 4

## CCOc1ccccc1CON=C(C)c1scnc1C [Ex. 17]
[1]
  ED50: > 200 mg/kg
In vivo [4]; LD50, Table II, 14 days
  LD50 at 336 h: > 1000 mg/kg
[3]
  ED50: > 200 mg/kg

## CON=C(C)c1sc(Br)nc1C [Ex. 25]
[1]
  ED50: > 200 mg/kg
In vivo [4]; LD50, Table II, 14 days
  LD50 at 336 h: > 1000 mg/kg
[3]
  ED50: > 200 mg/kg

## CC(=NOCc1ccccc1)c1scnc1C [Ex. 11, 5-(1-benzyloxyiminoethyl)-4-methylthiazole]
[1]; 30 min
  ED50 in respect of convulsions induced by PTZ: 46 mg/kg
In vivo [5]; [7]
  selectivity ratio: 12.8
In vivo [5]; [8]
  selectivity ratio: 21.7
In vivo [5]; Rota-rod, per os, male mice, 30 min after administration, read-out: TD50
  TD50 at 0.5 h: 1000 mg/kg
In vivo [4]; Therapeutic index MCE, MCE
  selectivity ratio: > 12.8
Male mice [2]; LD50 per os/ED50 per os, PTZ
  Therapeutic index PTZ: > 21.7
Male mice [2]; Table IV, per os, 20160 min
  LD50: > 1000 mg/kg
Convulsive seizures; in view of protection and therapeutic indices, Table IV
  most effective products according to the invention: most effective
[3]; 30 min
  ED50 in respect of convulsions induced by MCE: 78 mg/kg

## CON=C(C)c1sc(Cl)nc1C [Ex. 24]
[1]
  ED50: > 200 mg/kg
In vivo [4]; LD50, Table II, 14 days
  LD50 at 336 h: > 1000 mg/kg
[3]
  ED50: > 200 mg/kg

## CC(=NOC(C)C)c1scnc1C [Ex. 7]
[1]; 30 min
  ED50 in respect of convulsions induced by PTZ: 140 mg/kg
Male mice [2]; Table II, oral, 14 days
  LD50: > 1000 mg/kg
[3]
  ED50 in respect of convulsions induced by MCE: > 200 mg/kg

## CON=C(C)c1scnc1C [Ex. 1, 5-(1-methoxyiminoethyl)-4-methylthiazole]
[1]
  ED50: 62 mg/kg
In vivo [5]; Protection index MCE
  selectivity ratio: 4.1
In vivo [5]; Protection index PTZ
  selectivity ratio: 5.6
In vivo [5]; TD50
  TD50 at 0.5 h: 347 mg/kg
Male mice [6]
  protection indices compared with the reference products: better than those of the reference products
In vivo [4]; LD50, Table II, 14 days
  LD50 at 336 h: 740 mg/kg
In vivo [4]; LD50, Table IV, per os
  LD50 at 336 h: 740 mg/kg
In vivo [4]; Therapeutic index MCE, MCE
  selectivity ratio: 8.8
In vivo [4]; Therapeutic index PTZ, PTZ
  selectivity ratio: 11.9
Male mice [2]; mouse, in vivo
  therapeutic indices compared with the reference products: better than those of the reference products
[3]
  ED50: 84 mg/kg

## CC(=NO)c1scnc1C [Ex. 28, 5-(1-hydroxyiminoethyl)-4-methylthiazole]
[1]
  ED50: 126 mg/kg
In vivo [4]; LD50, Table II, 14 days
  LD50 at 336 h: 1000 mg/kg
[3]
  ED50: > 200 mg/kg

## CO/N=C(\C)c1scnc1C [Ex. 3, 5-(1-methoxyiminoethyl)-4-methylthiazole]
[1]
  ED50: 91 mg/kg
In vivo [5]; Protection index MCE
  selectivity ratio: 3
In vivo [5]; Protection index PTZ
  selectivity ratio: 3.2
In vivo [5]; TD50
  TD50 at 0.5 h: 290 mg/kg
In vivo [4]; LD50, Table II, 14 days
  LD50 at 336 h: 570 mg/kg
In vivo [4]; LD50, Table IV, per os
  LD50 at 336 h: 570 mg/kg
In vivo [4]; Therapeutic index MCE, MCE
  selectivity ratio: 5.9
In vivo [4]; Therapeutic index PTZ, PTZ
  selectivity ratio: 6.3
Convulsive seizures; pure E isomer versus mixture E/Z=91/9
  activity as an anticonvulsant: less active than the corresponding mixture E/Z=91/9
[3]
  ED50: 97 mg/kg

## CCON=C(C)c1scnc1C [Ex. 4]
[1]
  ED50: 120 mg/kg
In vivo [4]; LD50, Table II, 14 days
  LD50 at 336 h: 1000 mg/kg
[3]
  ED50: 150 mg/kg
